The values that follow come from publication PMC8558867, “Development of BromoTag: A “Bump-and-Hole”–PROTAC System to Induce Potent, Rapid, and Selective Degradation of Tagged Target Proteins” (Journal of Medicinal Chemistry, 2021).

The term Kd denotes the equilibrium constant for the complex coming apart. Usually DC50 stands for the midpoint of the concentration-degradation curve.

The subject of assay [1] is untagged Brd2, Brd3, Brd4. The assay can be described thus: Off-target degradation of endogenous BET proteins (western blot) in heterozygous BromoTag-Brd2 HEK293 cells. The format is cell-based, human. As to conditions: 1 nM to 10 μM, 6 h, diastereomeric mixtures. From the text:
To establish the BromoTag platform and support the degrader structure–activity relationships (SARs) to identify the best compound, we sought a practical and simple system that enables us to best optimize not only the degradation efficiency but also the selectivity profile of our degraders. To this end, the endogenous BET family protein Brd2 was chosen as a model target due to the availability of a well-established antibody for Brd2 detection, and the expression of a single protein isoform detected as a single band in the western blot.[24] Because Brd2 contains endogenous bromodomains and is degraded by 1 and other BET PROTACs, we reasoned that a heterozygous knock-in cell line allows us to monitor simultaneously both on-target degradation (BromoTagged-Brd2) and off-target degradation (untagged Brd2) using the same antibody. Together with the potential off-target degradation of the other BET proteins Brd3 and Brd4, this system thus enables us to best monitor protein degradation selectivity. We therefore decided to add the BromoTag at the N-terminus of the endogenous Brd2 gene locus using CRISPR knock-in methodologies, thereby yielding a chimeric protein bearing three bromodomains (the exogenous BromoTag, in addition to the endogenous Brd2^BD1 and Brd2^BD2). Hereafter, we refer to on-target activity as the degradation of BromoTag-Brd2 and off-target activity as any degradation of either untagged Brd2 or endogenous Brd3 or Brd4.
All dose–response degradation assays were performed on the genotype-verified heterozygous BromoTag-Brd2 HEK293 cell line. Heterozygous BromoTag-Brd2 HEK293 cells were plated at a density of 5 × 10^5 cells per well of a six-well healthy plate a day before initiation of the titration experiment. PROTAC compounds were dissolved in DMSO at a concentration of 10 mM; from these stock concentrations, PROTAC compounds were diluted to appropriate concentrations using DMSO in the range of 10 μM to 1 nM. The compounds were then added to 2 mL of DMEM (Invitrogen, Carlsbad, CA, USA) supplemented with 10% (v/v) FBS (Thermo Fisher, Waltham, MA, USA) and 1% (v/v) penicillin/streptomycin (pen/strep) (#15140122, Thermo Fisher, Waltham, MA, USA) and added to the cells while initiating the experiment. Control compounds such as MZ1 and cis-MZ1 were similarly dissolved in DMSO to an appropriate concentration. All titration experiments were performed for a total of 6 h prior to being harvested and were kept at 37 °C, 5% CO2, and 95% humidity once treatment was applied until right before harvesting. The cells were washed twice with PBS before being harvested.
All cells were harvested on ice with RIPA lysis and extraction buffer (Thermo Fisher Scientific, 89901) supplemented with protease inhibitor cocktail (Merck, 11697498001) and Benzonase Nuclease (Sigma, E1014) before being stored at −20 °C prior to use. Total protein quantity was determined using the BCA protein assay (#23225, Pierce, Rockford, Illinois). The protein concentration was determined using the BCA assay (Thermo Fisher Scientific, 23225). The samples were then prepared and loaded onto NuPAGE 4–12% bis–tris Midi gels (Thermo Fisher Scientific, WG1403A), followed by the transfer of proteins onto nitrocellulose membranes (EMD Millipore). The membranes were blocked for 1 h prior to incubation with the primary antibodies using 5% Milk TBST. The membranes were probed for Brd2 (Abcam, Ab139690, 1:1000), Brd3 (Abcam, Ab50818, 1:4000), Brd4 (Abcam, Ab128874, 1:1000), or our polyclonal Brd4^BD2 L387A antibody. Following overnight incubation with the primary antibodies at 4 °C, the membranes were incubated with secondary antibodies (anti-rabbit, Abcam AB216773, 1:5000 or anti-mouse, Abcam AB216774, 1:5000) and hFABTM rhodamine anti-tubulin antibody (Biorad, 12004165, 1:10,000) for 1 h and then imaged with a Bio-Rad imager (LI-COR Biosciences). All western blots were analyzed for band intensities using Image Lab from Bio-Rad (LI-COR, Biosciences). […]
On the technique in general: A western blot detects proteins with antibodies after separation by electrophoresis.

The subject of assay [2] is BromoTag-Brd2. As to the kind of experiment: Dose–response degradation assay (western blot, 6 h) in heterozygous BromoTag-Brd2 HEK293 cells. In kind it is cell-based, human. As to conditions: for pDC50 (Ab: Brd^4BD2 L387A) / pDC50 (Ab: BromoTag-Brd2) / DC50: 6 h; for pDC50 (Ab: Brd^4BD2 L387A) / pDC50 (Ab: BromoTag-Brd2): eight-point 10 μM to 1 nM, mean ±S.E. of two repeats; for DC50: read-out: DC50 of BromoTag-Brd2 degradation (DC50, 6h), single stereoisomers.

The target in assay [3] is T1, VHL with Brd4^BD2 L387A (Homo sapiens, UniProt O60885+P40337, L387A).
T1 construct: N-terminally His6-tagged VHL (54–213); His6 (N, cleaved yes); made in house; host or cells: E. coli
The assay can be described thus: FP competitive binding assay, ternary complex binding (compound preincubated with Brd4^BD2 L387A). As to conditions: for α (FP binding): cooperativity, Kd binary/Kd ternary, supplementary CSV; for Kd: preincubated with Brd4^BD2 L387A, mean ±S.E.M., N = 4, read-out: ternary binding affinity Kd; for cooperativity (α): α = Kd binary/Kd ternary.

The test system of assay [4] is BromoTag-Brd2. As to the kind of experiment: Time course degradation assay (western blot, 0–36 h) in heterozygous BromoTag-Brd2 HEK293 cells. The format is cell-based, human. As to conditions: 500 nM 47, 1 μM 48, over 36 h. Here is the method:
Heterozygous BromoTag-Brd2 HEK293 cells were plated at a density of 5 × 10^5 cells per well of a six-well healthy plate a day prior to initiating the time course assay. […] The time point range was between 0 and 36 h. Treatment was applied in a staggered fashion to enable all time points to be harvested at the same time.
All cells were harvested on ice with RIPA lysis and extraction buffer (Thermo Fisher Scientific, 89901) supplemented with protease inhibitor cocktail (Merck, 11697498001) and Benzonase Nuclease (Sigma, E1014) before being stored at −20 °C prior to use. Total protein quantity was determined using the BCA protein assay (#23225, Pierce, Rockford, Illinois). The protein concentration was determined using the BCA assay (Thermo Fisher Scientific, 23225). The samples were then prepared and loaded onto NuPAGE 4–12% bis–tris Midi gels (Thermo Fisher Scientific, WG1403A), followed by the transfer of proteins onto nitrocellulose membranes (EMD Millipore). The membranes were blocked for 1 h prior to incubation with the primary antibodies using 5% Milk TBST. […] All western blots were analyzed for band intensities using Image Lab from Bio-Rad (LI-COR, Biosciences). The data extracted from these blots were then plotted and analyzed using Prism (v. 8.2.0, GraphPad).

The target of assay [5] is T2, VHL (VCB protein) (Homo sapiens, UniProt P40337).
T2 construct: N-terminally His6-tagged VHL (54–213); His6 (N, cleaved yes); made in house; host or cells: E. coli
As to the kind of experiment: FP competitive binding assay, binary binding. The settings on record: compound alone; mean ±S.E.M., N = 4; read-out: binary affinity to VHL Kd.

For assay [6], the system named is 22RV1 cells. The assay can be described thus: CellTiter-Glo 2.0 cell viability assay, 22RV1. In kind it is cell-based, human. As to conditions: Homo sapiens; 22RV1, 48 Hours, mean ±S.E.M, N = 2; read-out: pEC50 (cell viability) (converted). (ATP-based viability assays read luminescence as a measure of living cells.)

`Cc1ncsc1-c1ccc(CNC(=O)[C@@H]2C[C@@H](O)CN2C(=O)[C@@H](NC(=O)COCCOCCOCCOC(=O)[C@H](C)[C@@H]2N=C(c3ccc(Cl)cc3)c3c(sc(C)c3C)-n3c(C)nnc32)C(C)(C)C)cc1` (relative stereo) [ME-OMZ1 (22), (S)-13-((2S,4R)-4-Hydroxy-2-((4-(4-methylthiazol-5-yl)benzyl)carbamoyl)pyrrolidine-1-carbonyl)-14,14-dimethyl-11-oxo-3,6,9-trioxa-12-azapentadecyl (R*)-2-((S*)-4-(4-chlorophenyl)-2,3,9-trimethyl-6H-thieno[3,2-f][1,2,4]triazolo[4,3-a][1,4]diazepin-6-yl)propanoate]: the “off-target degradation of untagged Brd2 or the other endogenous BET proteins” value in assay [1] is given as “induced undesired off-target degradation”. Besides, in assay [2] (supplementary CSV), the “pDmax (%) (Ab: Brd4BD2 L387A)” value is given as 94% and the “pDmax (%) (Ab:Brd2)” value was 96%.

As for `CC[C@@H](C(=O)OCCOCCCOCC(=O)N[C@H](C(=O)N1C[C@H](O)C[C@H]1C(=O)N[C@@H](C)c1ccc(-c2scnc2C)cc1)C(C)(C)C)[C@@H]1N=C(c2ccc(Cl)cc2)c2c(sc(C)c2C)-n2c(C)nnc21` [AGB2 (47), 2-(3-(2-(((S)-1-((2S,4R)-4-Hydroxy-2-(((S)-1-(4-(4-methylthiazol-5-yl)phenyl)ethyl)carbamoyl)pyrrolidin-1-yl)-3,3-dimethyl-1-oxobutan-2-yl)amino)-2-oxoethoxy)propoxy)ethyl (R)-2-((S)-4-(4-chlorophenyl)-2,3,9-trimethyl-6H-thieno[3,2-f][1,2,4]triazolo[4,3-a][1,4]diazepin-6-yl)butanoate], in assay [3], the “α (FP binding)” value is given as 3.6, the Kd turned out to be 12 nM and the “cooperativity (α)” value came to 3.6. For the same molecule, in assay [2], the “pDC50 (Ab: Brd^4BD2 L387A)” value came to 9.0 ± 0.4, the “pDC50 (Ab: BromoTag-Brd2)” value was determined as 8.6 ± 0.2 and the 50% degradation concentration (DC50) lay within 1 to 3 nM. In addition, the “extent of BromoTag-Brd2 degradation in the time course experiment” value in assay [4] is “near-complete target degradation”. Moreover, the Kd in assay [5] amounted to 45 nM.

For `CC[C@@H](C(=O)NCCOCCOCCOCC(=O)N[C@H](C(=O)N1C[C@H](O)C[C@H]1C(=O)NCc1ccc(-c2scnc2C)cc1)C(C)(C)C)[C@@H]1N=C(c2ccc(Cl)cc2)c2c(sc(C)c2C)-n2c(C)nnc21` [AGB3 (48), (2S,4R)-1-((2S,17R)-2-(tert-Butyl)-17-((S)-4-(4-chlorophenyl)-2,3,9-trimethyl-6H-thieno[3,2-f][1,2,4]triazolo[4,3-a][1,4]diazepin-6-yl)-4,16-dioxo-6,9,12-trioxa-3,15-diazanonadecanoyl)-4-hydroxy-N-(4-(4-methylthiazol-5-yl)benzyl)pyrrolidine-2-carboxamide], in assay [3], the “α (FP binding)” value came out at 10.9, the Kd is 9 nM and the “cooperativity (α)” value was found to be 10.9. In assay [2], the “pDC50 (Ab: Brd^4BD2 L387A)” value amounted to 6.5 ± 0.3, the “pDC50 (Ab: BromoTag-Brd2)” value was found to be 6.7 ± 0.1 and the DC50 lay in the range of 210 to 290 nM. The Kd in assay [5] amounted to 102 nM.

Take `Cc1ncsc1-c1ccc(CNC(=O)[C@@H]2C[C@H](O)CN2C(=O)[C@@H](NC(=O)COCCOCCOCCNC(=O)C[C@@H]2N=C(c3ccc(Cl)cc3)c3c(sc(C)c3C)-n3c(C)nnc32)C(C)(C)C)cc1` [cis-MZ1]: the EC50 in assay [6] is greater than 10 µM.
